One series relates to sAPP secretion in PC12h cells. Briefly: Stimulatory effects on sAPP secretion (Western blotting of culture supernatant). In kind it is cell-based, rat. Conditions: 1 nM concentration, 5 hours after addition, averaged from triplicate wells. The procedure:
(§1) PC12h cells, a subspecies of rat-derived pheochromocytoma PC12 cells, were provided by the late Professor Hiroshi Hatanaka (Osaka University, Japan). Dulbecco's modified Eagle's medium (DMEM), phosphate buffered saline (PBS), HEPES (N-2-hydroxyethylpiperazine-N′-2-ethanesulfonic acid) buffer (pH 7.4), horse serum (HS) and a penicillin (5000 U/ml)/streptomycin (5 mg/ml) mixture were purchased from Gibco BRL. Fetal calf serum (FCS) was purchased from Bioscience PTY. Transferrin, insulin and progesterone were purchased from Sigma. The flasks used for culture were manufactured by Falcon, and the collagen-coated 96-well and 6-well multiwell plates used for assay were manufactured by Iwaki Glass Co., Ltd. (Japan). An LDH assay kit (LDH cytotoxic test Wako) and an anti-βAPP antibody 22C11 were purchased from Wako Pure Chemical Industries, Ltd. (Japan) and Chemicon, respectively. All other chemicals used were commercially available and of reagent grade.
PC12h cells were grown in DMEM culture medium supplemented with 10% FCS, 5% HS and penicillin/streptomycin, and then released by pipetting. The cells were seeded in collagen-coated 6-well plates at a confluency of 50% to 70% and allowed to stand for 1 day. On the following day, the wells were washed once with 10 mM HEPES/DMEM (1 ml) and then filled with 10 mM HEPES/DMEM culture medium (0.5 ml), followed by addition of Example No. 5 or 32. After 5 hours, the culture supernatant was collected from each well. Trichloroacetic acid (final concentration: 15%) was added to the culture supernatant to precipitate proteins, which were then concentrated. After addition of SDS-PAGE sample buffer (Daiichi Pure Chemicals Co., Ltd., Japan), each sample was boiled for 5 minutes, subjected to SDS-PAGE (10/20% gel, ATTO) and then transferred to a PVDF membrane (Bio-Rad Laboratories) at 2 mA/cm^2 for 60 minutes. […] An ECL Plus (Amersham) was used for detection and the signals were digitized by an LAS-1000 plus (Fuji film, Japan), followed by quantification with NIH-image software.
On the technique in general: In western blotting, separated proteins are transferred to a membrane and probed.
Regarding `COc1ccc(C(=O)N2c3ccccc3C(n3c4ccccc4c4ccccc43)CC2C)cc1OC` (stereo not drawn) [Example 32, 2,4-cis-4-(9H-9-Carbazolyl)-1-(3,4-dimethoxybenzoyl)-2-methyl-1,2,3,4-tetrahydroquinoline], the “increase in sAPP production compared to the control group” value is given as “approximately 2.2 fold”.

Still in this series, the particulars now being: 10 nM concentration, 5 hours after addition, averaged from triplicate wells.
As for `COc1ccc(C(=O)N2c3ccccc3C(N3CCCc4ccccc43)CC2C)cc1OC` (single isomer, unassigned; (-)) [Example 5, (−)-2,4-cis-1-(3,4-Dimethoxybenzoyl)-2-methyl-4-(1,2,3,4-tetrahydroquinolin-1-yl)-1,2,3,4-tetrahydroquinoline], the “increase in sAPP production compared to the control group” value is on record as “approximately 2.0 fold”.

Still in this series, the particulars now being: 5 hours after addition, Western blotting with anti-βAPP antibody 22C11.
As for `COc1ccc(C(=O)N2c3ccccc3C(N3CCCc4ccccc43)CC2C)cc1OC` (single isomer, unassigned; (-)) [Example 5, (−)-2,4-cis-1-(3,4-Dimethoxybenzoyl)-2-methyl-4-(1,2,3,4-tetrahydroquinolin-1-yl)-1,2,3,4-tetrahydroquinoline], the “sAPP level in the culture medium as compared to the control group” value was “concentration-dependent increase”.

In the next series the test system is PC12h cells. Description: Inhibitory effects on glutamate-induced cell death (LDH activity of living cells). In kind it is cell-based, rat. Conditions: concentration of 1 μM, 72 hours. How it is done:
as §1
PC12h cells were seeded in 96-well plates at a density of 2×10^4 cells/cm^2. […] After 72 hours, living cells were counted. Cell counts were determined as follows: after removal of the culture medium, living cells were solubilized in 0.1% Tween 20-containing PBS and assayed for LDH activity. The results were expressed as % of control, whose LDH activity was set to 100.
`COc1ccc(C(=O)N2c3ccccc3C(N3CCCc4ccccc43)CC2C)cc1OC` (single isomer, unassigned; (-)) [Example 5, (−)-2,4-cis-1-(3,4-Dimethoxybenzoyl)-2-methyl-4-(1,2,3,4-tetrahydroquinolin-1-yl)-1,2,3,4-tetrahydroquinoline]: the “inhibition of cell death induced by addition of 1 mM glutamic acid” value was “completely inhibited”.

Tested on in the next series: not given
Experiment: not given
Conditions: not given
Consider `COc1ccc(C(=O)N2c3ccccc3C(N3CCCc4cc(C(C)C)ccc43)CC2C)cc1OC` (stereo not drawn) [Example 85, 2,4-cis-4-(6-Isopropyl-1,2,3,4-tetrahydroquinolin-1-yl)-1-(3,4-dimethoxybenzoyl)-2-methyl-1,2,3,4-tetrahydroquinoline], for which the melting point (usually the temperature, or range, at which the solid turns liquid) was in the range of 187 to 188 °C. On the same count and under the same terms, the figure for `CCOc1ccc(C(=O)N2c3ccccc3C(N3CCCc4ccccc43)CC2C)cc1OCC` (stereo not drawn) [Example 102, 1-(3,4-Diethoxybenzoyl)-2-methyl-4-(1,2,3,4-tetrahydroquinolin-1-yl)-1,2,3,4-tetrahydroquinoline] is 157 to 158 °C; for `COc1ccc(C(=O)N2c3ccccc3C(n3c4ccccc4c4ccccc43)CC2CCCc2ccccc2)cc1OC` (stereo not drawn) [Example 116, 9-[2,4-cis-1-(3,4-Dimethoxybenzoyl)-2-(3phenylpropyl)-1,2,3,4-tetrahydroquinolin-4-yl]-9H-carbazole] it is 225 to 226 °C; for `COc1ccc(C(=O)N2c3ccccc3C(n3c4ccccc4c4ccccc43)CC2CCCO)cc1OC` (stereo not drawn) [Example 118, 3-[2,4-cis-4-(9H-9-Carbazolyl)-1-(3,4-dimethoxybenzoyl)-1,2,3,4-tetrahydroquinolin-2-yl]-1-propanol] it is 192 to 194 °C. Still for that read-out and setting: the figure for `CCCC(=O)NCCCC1CC(n2c3ccccc3c3ccccc32)c2ccccc2N1C(=O)c1ccc(OC)c(OC)c1` (stereo not drawn) [Example 122, N-[3-[2,4-cis-4-(9H-9-Carbazolyl)-1-(3,4-dimethoxybenzoyl)-1,2,3,4-tetrahydroquinolin-2-yl]propyl]butanamide] is 199 to 201 °C.

`COc1ccc(C(=O)N2c3ccccc3C(n3c4ccccc4c4ccccc43)CC2CCCNC(=O)c2ccccc2)cc1OC` (stereo not drawn) [Example 124, N-[3-[2,4-cis-4-(9H-9-Carbazolyl)-1-(3,4-dimethoxybenzoyl)-1,2,3,4-tetrahydroquinolin-2-yl]propyl]-benzamide] came in with a melting point of 236 to 237 °C. Still for that read-out and setting: the figure for `CCCC1CC(n2c3ccccc3c3ccccc32)c2ccccc2N1C(=O)c1ccc(OCC)c(OC)c1` (stereo not drawn) [Example 146, 2,4-cis-4-(9H-9-Carbazolyl)-1-(4-ethoxy-3-methoxybenzoyl)-2-propyl-1,2,3,4-tetrahydroquinoline] is 221 to 222 °C; for `CCCCC1CC(n2c3ccccc3c3ccccc32)c2ccccc2N1C(=O)c1ccc(OCC)c(OC)c1` (stereo not drawn) [Example 148, 2,4-cis-9-[2-Butyl-1-(4-ethoxy-3-methoxybenzoyl)-1,2,3,4-tetrahydro-4-quinolinyl]-9H-carbazole] it is 231 to 232 °C.

The compound `CCCCC1CC(n2c3ccccc3c3ccccc32)c2ccccc2N1C(=O)c1ccc(OCC)c(OCC)c1` (stereo not drawn) [Example 149, 2,4-cis-9-[2-Butyl-1-(3,4-diethoxybenzoyl)-1,2,3,4-tetrahydro-4-quinolinyl]-9H-carbazole] displayed a melting point of 232 to 233 °C.

Turning to `CCC1CC(n2c3ccccc3c3ccccc32)c2ccccc2N1C(=O)c1ccc(SC)c(OC)c1` (stereo not drawn) [Example 150, 2,4-cis-9-[2-Ethyl-1-(3-methoxy-4-methylthiobenzoyl)-1,2,3,4-tetrahydro-4-quinolinyl]-9H-carbazole], the melting point is 210 to 211 °C. The same measure, in the same setting: the figure for `CCCCC1CC(n2c3ccccc3c3ccccc32)c2ccccc2N1C(=O)c1ccc(SC)c(OC)c1` (stereo not drawn) [Example 151, 2,4-cis-9-[2-Butyl-1-(3-methoxy-4-methylthiobenzoyl)-1,2,3,4-tetrahydro-4-quinolinyl]-9H-carbazole] is 230 to 231 °C; for `CCOC(=O)CCCCC1CC(n2c3ccccc3c3ccccc32)c2ccccc2N1C(=O)c1ccc(OC)cc1` (stereo not drawn) [Example 157, Ethyl 5-[4-(9H-9-carbazolyl)-1-(4-methoxybenzoyl)-1,2,3,4-tetrahydro-2-quinolinyl]pentanoate] it is 167 to 168 °C.

With `COc1ccc(C(=O)N2c3ccccc3C(N3CCCc4c(Cl)cccc43)=CC2C)cc1OC` (stereo not drawn) [Example 160, 4-(5-Chloro-1,2,3,4-tetrahydroquinolin-1-yl)-1-(3,4-dimethoxybenzoyl)-2-methyl-1,2-dihydroquinoline], the melting point was 162 to 163 °C. For the compound `COc1ccc(C(=O)N2c3ccccc3C(n3c4ccccc4c4ccccc43)=CC2C)cc1OC` (stereo not drawn) [Example 161, 4-(9H-9-Carbazolyl)-1-(3,4-dimethoxybenzoyl)-2-methyl-1,2-dihydroquinoline], the melting point is 184 to 185 °C.

Source of the values: patent US6930104B2, “Heterocyclic derivatives” (Takeda Chemical Industries, Ltd., priority 2001, dated 2005).
